Data from paper PMC9413514, “Accessing Lipophilicity and Biomimetic Chromatography Profile of Biologically Active Ingredients of Botanicals Used in the Treatment of Inflammatory Bowel Disease” (Pharmaceuticals, 2022).

Key:
[1] = IAM-HPLC assay (lipophilicity, affinity to phospholipids); type: physicochemical
Method: IAM columns provide potential to simulate membrane permeability since the amphiphilic character of phospholipid functional groups plays an important role in IAM retention especially when charged molecules are analysed.
(§1) Stock solutions of analytes and calibration standards were prepared by dissolving 10 mg of each solute in 10 mL of methanol and kept at 4 °C. Working solutions were freshly prepared at the beginning of each day by dilution of the stock solutions to 100 μg/mL with methanol for TLC measurements or mobile phase for HPLC measurements. Before use, the samples were sonicated (Elmasonic XtraTT, Elma Schmidbauer) for 10 min at 25 °C and all working solutions were filtered through 0.2 µm polyethersulfone filters (Obrnuta faza). To protect analytes from photodegradation, the amber glass HPLC vials were used.
C18-HPLC assay was carried out at Agilent HPLC 1100 and Zorbax SB C18 chromatographic column (length 250 mm.6 mm, particle size 5 µm) by Agilent Technologies, while IAM-HPLC assay was conducted using IAM P.C.DD2 chromatographic column (length 50 mm, i.d. 3.0 mm, particle size […]) by Regis Technologies (Morton Grove, IL, USA). Retention data were collected at 25.0 ± 0.1 °C using isocratic method working with mobile phases, mixing the respective amounts of PBS (10 mM, pH 7.4) and methanol from 35% to 80% of organic solvent in 5% increment. Each mobile phase was shaken vigorously and filtrated through membrane filter, no. 66, diameter 47 mm, pore size 0.45 µm by Supelco and degassed by sonication 5 min before use. The injection volume was set at 10 µL, and the measurements were carried out at flow rate 1.0 mL/min. Natrium nitrate solution (0.1 mg/mL in mobile phase) was used as the marker of dead-time. The absorbance of the analytes during a chromatographic run was collected in the spectral range of 200–400 nm, and the detection wavelength for each analyte was the one providing the maximum peak height.

[2] = molecular target: T1, human serum albumin (HSA) (Homo sapiens, UniProt P02768); test: HSA-HPAC assay (plasma protein binding); type: in vitro ADME; conditions: Chiralpak-HSA, pH 7.4, 25 °C; spread is RSD in %
T1 construct: purchased ChromTech (Cedex, France) Chiralpak-HSA
Text: (§2) The gradient retention times obtained by HSA-HPAC and AGP-HPAC assays were standardized using a calibration set of compounds with known percentage of plasma protein binding data and procedure described in our previously published study. […] This verification assured that the protein affinity indices obtained by HPAC assays depict not only unspecific generally lipophilicity-driven interactions, but also highly specific recognition forces responsible of enantioselectivity.
as §1
(§3) The binding of biologically active compounds to the plasma proteins was investigated using affinity chromatographic columns by ChromTech (Cedex, France) containing immobilized human serum albumin (HSA) (Chiralpak-HSA, length 50 mm, i.d. 4.6 mm, particle size 5 µm) and α1-acid glycoprotein (AGP) (Chiralpak-AGP, length 50 mm, i.d. 4.6 mm, particle size 5 µm) and Agilent HPLC 1100 instrument. The 20 mM potassium phosphate buffer with the pH adjusted to 7.4 and iso-propanol were used as mobile phase components A and B. Retention data were collected at 25.0 ± 0.1 °C using gradient program as follows: 0 min/0% B, 6 min/30% B, 15 min/30% B and 20 min/0% B. Injection volume was set at 10 µL and the measurements were carried out at 25.0 ± 0.1 °C with flow rate of 1.5 mL/min. The absorbance of the analytes during a chromatographic run was collected in the spectral range 200–400 nm, and the detection wavelength for each analyte was the one providing the maximum peak height.

[3] = tested on: α1-acid glycoprotein (AGP); test: AGP-HPAC assay (plasma protein binding); type: in vitro ADME; conditions: Chiralpak-AGP, pH 7.4, 25 °C; spread is RSD in %
Text: as §2, §1, §3

[4] = C18-TLC assay (hydrophobicity); type: physicochemical; conditions: for RM0 (TLC hydrophobicity index, intercept of linear equation): RP-18 TLC, PBS pH 7.4/methanol, extrapolated to zero organic modifier; for spot migration in C18-TLC: regardless the percentage of the organic modifier in the mobile phase
Text: In TLC measurements RF value depends on the chemical structure of analyte and its interaction with stationary and mobile phase. […] As it was expected, with increase in the percentage of organic modifier in the mobile phase the increase in RF values can be seen with accompanied decrease in RM values expressed as RM = log(1/RF - 1). Measured RF values were in the range from 0.1 to 0.7 obtained in a wide range of mobile phase organic modifier concentrations. […] Increasing concentration of the organic modifier in the mobile phase caused a slower decrease in the RM values for less hydrophobic analytes than for more hydrophobic ones. […] Increase in the hydrophobicity within curcuminoids and andrographolides is related to increase in lipophilicity determined by shake-flask method (Table 3). Stock solutions of analytes and calibration standards were prepared by dissolving 10 mg of each solute in 10 mL of methanol and kept at 4 °C. Working solutions were freshly prepared at the beginning of each day by dilution of the stock solutions to 100 μg/mL with methanol for TLC measurements or mobile phase for HPLC measurements. Before use, the samples were sonicated (Elmasonic […]) for 10 min at 25 °C and all working solutions were filtered through 0.2 μm polyethersulfone filters (Obrnuta faza). To protect analytes from photodegradation, the amber glass HPLC vials were used. Analyses were carried out using a commercially available 10 cm x 20 cm RP-18 TLC plates with fluorescent indicator (Merck KGaA). 5 μL of each working solution ([…]) was applied to the plates as 5 mm bends, 10 mm from the lower edge and 15 mm from sides of plates. The mobile phases were prepared by mixing the respective amounts of PBS (20 mM, pH 7.4) and methanol from 50% to 80% of organic solvent in 5% increment. The vertical flat-bottom chamber ([…], Switzerland) with a stainless-steel lid was saturated with mobile phase for 30 min. The plates were developed to a distance of 9 cm at room temperature, dried in the open air for 5 min and visualized under λ = 254 nm UV light (UV Cabinet with Dual Wavelength UV lamp by Camag).

[5] = Miniaturized shake-flask method (n-octanol/PBS pH 7.4) with HPLC analysis; type: physicochemical; conditions: n-octanol/PBS 20 mM pH 7.4, 25 °C; spread is RSD in %; read-out: log D7.4 ± RSD (%) (n = 3)
Method: Stock solution of biologically active ingredients of botanicals used in IBD treatment were prepared using dimethylsulfoxide in concentration of 2 mg/mL. Working solutions were prepared daily by dilution of the stock solutions with PBS (20 mM, pH 7.4) pre-saturated with n-octanol. Before the injection into the HPLC system all solutions were sonicated for 15 min at room temperature in Elmasonic XtraTT (Elma Schmidbauer, Singen, Germany) and filtered through 0.2 μm polyethersulfone filters (Obrnuta faza, Pazin, Croatia).
The pre-saturated solutions of n-octanol and PBS (20 mM, pH 7.4) were used for determination of logarithm of distribution coefficient (log D7.4). The n-octanol and aqueous phase (mixture 1:1, v/v) were mutually saturated for 24 h in an orbital shaker-incubator ES-20/60 (Biosan, Riga, Latvia) at 100 oscillations per min at 25.0 ± 0.1 °C. The prepared mixture was left resting for at least 12 h in the thermostat at 25.0 ± 0.1 °C to ensure complete separation of the two phases. Until analysis, separated saturated solutions were kept in refrigerator at 4 °C.
Shake-flask procedure was conducted in amber 2 mL HPLC vials. 300 μL of the working solution was added to 1500 μL of n-octanol pre-saturated with PBS. To prevent material loss due to volatilisation, the two-phase system nearly filled the entire volume of the test vessels. All n-octanol–buffer mixtures were first vortexed for 1 min and then shaken for 1 h (150 oscillations per min) at room temperature (25.0 ± 0.1 °C) to reach equilibrium and phase distribution. Afterward, the samples were centrifuged using a Z 326 K tabletop centrifuge (HERMLE Labortechnik, Wehingen, Germany) for 30 min at 4000× g and 25 °C to ensure that possible emulsions were removed.
After equilibration and phase separation, the aqueous phase of all samples was analysed on an Agilent HPLC 1100 (Agilent Technologies, Waldbronn, Germany) with diode array detection. Analysis was conducted with a Zorbax SB C18 column (length 150 mm, i.d. 4.6 mm, particle size 5 μm) by Agilent Technologies. 10 min chromatographic runs were performed at 25.0 ± 0.1 °C in isocratic mode using a methanol/water mixture (60/40, v/v) with addition of 0.1% of formic acid as mobile phase modifier at a flow rate of 1.0 mL/min. The mobile phase was filtered through a membrane filter, no. 66, diameter 47 mm, pore size 0.45 µm (Supelco, Bellefonte, PA, USA). The vials were placed in the rack on the autosampler at 25 °C. The injection volume was 10 µL, with a needle offset of 0.5 mm. To avoid any carryover of the analyte-containing n-octanol phase, the outside of the syringe was subsequently washed in methanol before injection. The absorbance of the analytes during a chromatographic run was collected in the spectral range 200–400 nm, and the detection wavelength for each analyte was the one providing the maximum peak height.

[6] = IAM P.C.DD2 column, PBS pH 7.4/methanol, extrapolated to zero organic modifier

T1 sequence (P02768 25-609): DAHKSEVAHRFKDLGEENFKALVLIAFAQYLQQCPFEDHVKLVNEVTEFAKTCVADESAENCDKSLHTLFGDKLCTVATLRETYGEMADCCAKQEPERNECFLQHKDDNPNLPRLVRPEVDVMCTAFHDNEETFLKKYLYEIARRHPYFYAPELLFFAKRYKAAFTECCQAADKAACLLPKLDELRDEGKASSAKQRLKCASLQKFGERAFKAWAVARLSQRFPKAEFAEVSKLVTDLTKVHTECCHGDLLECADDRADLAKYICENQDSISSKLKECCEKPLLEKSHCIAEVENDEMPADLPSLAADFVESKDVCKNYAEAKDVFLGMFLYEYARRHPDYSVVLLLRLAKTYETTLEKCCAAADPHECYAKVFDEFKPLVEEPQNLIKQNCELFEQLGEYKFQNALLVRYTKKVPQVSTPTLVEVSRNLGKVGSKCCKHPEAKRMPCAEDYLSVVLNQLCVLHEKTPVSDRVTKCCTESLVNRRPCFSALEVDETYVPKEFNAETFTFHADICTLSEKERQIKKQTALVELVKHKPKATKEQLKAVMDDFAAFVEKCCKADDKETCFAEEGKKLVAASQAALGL

logk0 IAM (HPLC lipophilicity index, intercept of linear equation) ([1]; pH 7.4) | HSA Binding ± RSD (%) (n = 3) [2] | AGP Binding ± RSD (%) (n = 3) [3] | RM0 (TLC hydrophobicity index, intercept of linear equation) [4] | Δ RM0 (increase compared to 11-keto-β-boswellic acid) ([4]; compared to 11-keto-β-boswellic acid) | logk0 IAM (HPLC lipophilicity index, intercept of linear equation) [1, 6] | logD at 1 h [5] | spot migration in C18-TLC [4] | Structure (SMILES)
y = −0.0703 x + 5.1157 | 99.83 ± 0.47% | 83.10 ± 0.37% | y = −0.0722 x + 6.9059 | 1.53 units | – | – | – | CC(=O)O[C@@H]1CC[C@@]2(C)[C@@H](CC[C@]3(C)[C@@H]2C(=O)C=C2[C@@H]4[C@@H](C)[C@H](C)CC[C@]4(C)CC[C@]23C)[C@@]1(C)C(=O)O [3-Acetyl-11-keto-β-boswellic Acid, 3-acetyl-11-keto-β-boswellic acid]
– | 98.09 ± 0.02% | 79.01 ± 0.20% | y = −0.0564 x + 5.3756 | – | y = −0.0570 x + 4.9194 | – | – | CC1CCC2(C)CCC3(C)C(=CC(=O)C4C5(C)CCC(O)C(C)(C(=O)O)C5CCC43C)C2C1C (stereo not drawn) [11-Keto-β-boswellic Acid, 11-keto-β-boswellic acid]
– | 97.52 ± 0.20% | 83.07 ± 1.10% | – | – | – | 1.94 | – | COc1cc(/C=C/C(=O)CC(=O)/C=C/c2ccc(O)c(OC)c2)ccc1O [Curcumin, curcumin]
– | 98.94 ± 0.35% | 89.22 ± 0.30% | – | – | y = −0.0788 x + 6.3109 | – | no spot migration was observed | CC1(C)CCC2(C)CCC3(C)C(=CCC4C5(C)CCC(O)C(C)(C(=O)O)C5CCC43C)C2C1 (stereo not drawn) [α-Boswellic Acid, α-boswellic acid]
y = −0.0816 x + 6.5157 | 99.79 ± 0.30% | 89.15 ± 2.04% | – | – | – | – | no spot migration was observed | C[C@H]1[C@H](C)CC[C@]2(C)CC[C@]3(C)C(=CC[C@@H]4[C@@]5(C)CC[C@@H](O)[C@](C)(C(=O)O)[C@@H]5CC[C@]43C)[C@H]12 [β-Boswellic Acid, β-boswellic acid]
